Some test systems named below: SNB-78; XF498; HOP-18; KM-20L2; LXFL 529; DLD-1; DMS-114; DMS-273.
What all share (assay): NCI anticancer screen, dose series, 48 h

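Five compound concentrations were applied to cells in 96-well plates for 48 hours; endpoints were derived by simple linear interpolation of the resulting dose-response curve. GI50: concentration for 50% inhibition of growth.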 Active and inactive are the calls of the source. Rule as the data show it: active = GI50 up to about 1.1 µM and inactive = higher.

As for `COc1cc(CCCC(O)COc2cccc3c2C2(O)CCCCCC32)cc(OC)c1` (stereo not given), the GI50 was 20.7 µM (inactive) in the experiment with SNB-78; 19.9 µM (inactive) with XF498; 16 µM (inactive) in the experiment on HOP-18; 14.1 µM (inactive) with KM-20L2; 16.5 µM (inactive) with LXFL 529; 20.1 µM (inactive) with DLD-1. Moreover, the GI50 is 11.4 µM (inactive) in the experiment with DMS-114 and 20.5 µM (inactive) in the experiment with DMS-273.
Turning to `Cc1nc2sccn2c1C(=O)NC(=O)Nc1ccc(Cl)cc1`, the GI50 in the experiment with SNB-78 is 42.9 µM (inactive); with XF498 it was 19.2 µM (inactive); in the experiment on KM-20L2, > 100 µM (inactive); in the experiment on LXFL 529, > 100 µM (inactive); in the experiment on DLD-1, > 100 µM (inactive); in the experiment on DMS-114 it was 50.5 µM (inactive). Moreover, the GI50 in the experiment with DMS-273 was 74.1 µM (inactive).
For `CC(=O)OCC1OC(OC2C(COC(C)=O)OC(Sc3ccccc3C)C(OC(C)=O)C2OC(C)=O)C(OC(C)=O)C(OC(C)=O)C1OC(C)=O` (stereo not given), the GI50 with SNB-78, with HOP-18, in the experiment on KM-20L2, in the experiment with LXFL 529, in the experiment on DLD-1 and with DMS-114 was > 100 µM (inactive) each time. Moreover, the GI50 with DMS-273 was > 100 µM (inactive).
Turning to `N=C(c1ccccc1)N(c1ccccc1)c1ccccc1`, the GI50 with SNB-78 was 55 µM (inactive); with HOP-18, 0.0415 µM (active); in the experiment on KM-20L2 it was > 100 µM (inactive); in the experiment on LXFL 529, 21.6 µM (inactive); in the experiment with DLD-1, 63.5 µM (inactive); in the experiment with DMS-273 it was 42.5 µM (inactive).
Consider `CC(=O)O[C@@]1(C)[C@@H](C)C(=O)O[C@@H]2CCN3CC=C(COC(=O)[C@]1(C)O)[C@H]23`, for which the GI50 with KM-20L2, with LXFL 529, in the experiment on DLD-1, with DMS-114 and in the experiment on DMS-273 was > 100 µM (inactive) each time.
As for `Cc1cccc(-c2nnc3s/c(=C\c4ccc5c(c4)OCO5)c(=O)n23)c1`, the GI50 with SNB-78, with XF498, with HOP-18, with KM-20L2, with LXFL 529 and with DLD-1 was > 100 µM (inactive) throughout. Moreover, the GI50 in the experiment with DMS-114 and in the experiment with DMS-273 was > 100 µM (inactive) in each case.
As to `NC(=O)C(c1ccccc1)N1CCOCC1` (stereo not given), the GI50 in the experiment with SNB-78, with HOP-18, with KM-20L2, with LXFL 529, in the experiment with DLD-1 and with DMS-114 was > 100 µM (inactive) throughout. In the experiment with DMS-273, the GI50 is > 100 µM (inactive).
Regarding `Nc1c2ccccc2nc2c(C(=O)Nc3ccc(S(N)(=O)=O)cc3)cccc12`, the GI50 with SNB-78 is > 100 µM (inactive); in the experiment on XF498 it was 72.3 µM (inactive); in the experiment on KM-20L2, > 100 µM (inactive); with LXFL 529 it was 45.2 µM (inactive); in the experiment with DLD-1, > 100 µM (inactive); in the experiment with DMS-114, > 100 µM (inactive). Moreover, in the experiment with DMS-273, the GI50 was 52.8 µM (inactive).
As for `CC1=C(C(=O)Nc2ccccc2C)C(c2ccccc2)C(C(=O)Nc2ccccc2C)=C(C)N1`, the GI50 is 32.9 µM (inactive) with SNB-78; 23.1 µM (inactive) with XF498; 36.6 µM (inactive) in the experiment on HOP-18; 42.2 µM (inactive) in the experiment on KM-20L2; 30.5 µM (inactive) in the experiment on LXFL 529; 41 µM (inactive) in the experiment with DLD-1. In addition, the GI50 in the experiment on DMS-114 was 30.4 µM (inactive); with DMS-273, 49.5 µM (inactive).
For the molecule `CC[C@@]1(O)C(=O)OCc2c1cc1n(c2=O)Cc2cc3cc(O)ccc3nc2-1` [HYDROXYCAMPTOTHECIN], the GI50 was 0.248 µM (active) in the experiment with SNB-78; 0.0262 µM (active) with XF498; 0.109 µM (active) with HOP-18; 0.0834 µM (active) with KM-20L2; 0.15 µM (active) with LXFL 529; 1.2 µM (inactive) in the experiment on DLD-1. The GI50 with DMS-114 is 0.0136 µM (active).
